Measurements published in PubChem BioAssay (NCI).
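Cultured in 96-well plates, cells were exposed to test compound for 48 hours across five concentrations. GI50 is the concentration that inhibits growth by half. The concentration for full growth arrest is given as TGI.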

Columns and labels:
Assay in all cases: NCI-60 cell line screen, 48 h
BT-549 breast = tested on: BT-549 breast
CCRF-CEM leukemia = tested on: CCRF-CEM leukemia
HCC-2998 colon = tested on: HCC-2998 colon
LOX IMVI melanoma = tested on: LOX IMVI melanoma
MCF7 breast = tested on: MCF7 breast
NCI/ADR-RES ovarian = tested on: NCI/ADR-RES ovarian
SF-295 CNS = tested on: SF-295 CNS
SF-539 CNS = tested on: SF-539 CNS
EKVX NSCLC = tested on: EKVX NSCLC
NCI-H23 lung = tested on: NCI-H23 lung

SMILES	GI50 (BT-549 breast)	TGI (BT-549 breast)	GI50 (CCRF-CEM leukemia)	TGI (CCRF-CEM leukemia)	GI50 (HCC-2998 colon)	TGI (HCC-2998 colon)	GI50 (LOX IMVI melanoma)	TGI (LOX IMVI melanoma)	GI50 (MCF7 breast)	TGI (MCF7 breast)	GI50 (NCI/ADR-RES ovarian)	TGI (NCI/ADR-RES ovarian)	GI50 (SF-295 CNS)	TGI (SF-295 CNS)	GI50 (SF-539 CNS)	TGI (SF-539 CNS)	GI50 (EKVX NSCLC)	TGI (EKVX NSCLC)	GI50 (NCI-H23 lung)	TGI (NCI-H23 lung)
COc1ccc(-c2cc(=O)n(-c3nc4ccccc4[nH]3)[nH]2)cc1OC	23.7 µM	> 100 µM	2.66 µM	38.1 µM	16.1 µM	> 100 µM	6.73 µM	> 100 µM	4.74 µM	> 100 µM	3.57 µM	33.3 µM	1.3 µM	4.82 µM	6.36 µM	48.9 µM	–	–	–	–
COC(C)(C)[C@@H](O)[C@H](O)C[C@H](C)C1=C2CC[C@@H]3[C@@]4(C)CC[C@@H](OC(C)=O)C(C)(C)[C@@H]4C[C@@H](OC4OC(COC(C)=O)C(O)C(O)C4O)[C@@]3(C)[C@]2(C)CC1 (some centres undefined)	15.1 µM	28.7 µM	5.34 µM	19.9 µM	4 µM	13.4 µM	6.36 µM	19.6 µM	2.62 µM	12.4 µM	15.2 µM	29.4 µM	11.6 µM	24.1 µM	–	–	13 µM	26.2 µM	14.4 µM	27.4 µM
Cc1cn2c(/C=C3/C(=O)Nc4c3ccc3ccccc43)c(C(F)(F)F)nc2s1	1.18 µM	> 100 µM	2.33 µM	39.8 µM	3.23 µM	> 100 µM	1.07 µM	21.1 µM	0.449 µM	> 100 µM	0.456 µM	> 100 µM	0.494 µM	> 100 µM	1.14 µM	5.07 µM	4.23 µM	> 100 µM	2.09 µM	> 100 µM
Cc1ccc2nc3ccccc3c(NCc3ccc(Cl)cc3)c2c1	6.38 µM	13.3 µM	2.02 µM	8.95 µM	1.02 µM	2.02 µM	2.07 µM	7.46 µM	1.94 µM	8.82 µM	4.72 µM	12.4 µM	5.65 µM	11.7 µM	5.55 µM	12.1 µM	6.45 µM	13 µM	5.55 µM	12 µM
Cc1ccc(S(=O)(=O)Oc2ccc3c4c(c(=O)oc3c2)CCCCCC4)cc1	> 100 µM	> 100 µM	8.92 µM	> 100 µM	> 100 µM	> 100 µM	> 100 µM	> 100 µM	> 100 µM	> 100 µM	5.08 µM	> 100 µM	> 100 µM	> 100 µM	> 100 µM	> 100 µM	–	–	> 100 µM	> 100 µM
CNC(=O)NCC1OC(n2cnc3c(NC(=O)Nc4ccccc4)ncnc32)C(O[Si](C)(C)C(C)(C)C)C1O[Si](C)(C)C(C)(C)C (centres undefined)	2.94 µM	8.18 µM	3.59 µM	> 100 µM	2.02 µM	3.75 µM	1.82 µM	3.36 µM	2.69 µM	19.4 µM	3.72 µM	20.7 µM	3.84 µM	31.8 µM	3.07 µM	13 µM	3.7 µM	30.6 µM	3.17 µM	9.07 µM
C=CC(=O)N1CCC(c2ccc(C(N)=O)c(-c3ccc(Oc4ccccc4)cc3)n2)CC1	22.7 µM	95.4 µM	33.9 µM	> 100 µM	58.1 µM	> 100 µM	26.3 µM	> 100 µM	22.7 µM	> 100 µM	30.3 µM	> 100 µM	27.3 µM	> 100 µM	40.3 µM	> 100 µM	21.5 µM	> 100 µM	34.6 µM	> 100 µM
COc1ccc([C@H](CC(=O)O)N2CCN(CCCc3ccc4c(n3)NCCC4)C2=O)cn1	0.153 µM	0.296 µM	> 100 µM	> 100 µM	> 100 µM	> 100 µM	0.715 µM	4.23 µM	0.247 µM	0.902 µM	> 100 µM	> 100 µM	47.6 µM	> 100 µM	> 100 µM	> 100 µM	–	–	0.892 µM	4.07 µM
O=C(O)C(Cc1cnc[nH]1)N1C(=O)c2ccccc2C1=O (centres undefined)	–	> 100 µM	–	–	–	–	–	> 100 µM	–	> 100 µM	–	> 100 µM	–	98.5 µM	–	–	–	> 100 µM	–	> 100 µM
Cc1ccc(/C=C/c2c(C(=O)/C=C/c3ccccc3)c(C)nc3ccccc23)cc1	1.75 µM	4.36 µM	1.69 µM	> 100 µM	1.71 µM	3.35 µM	1.64 µM	3 µM	–	–	2.24 µM	5.85 µM	2.2 µM	5.02 µM	1.74 µM	3.19 µM	1.85 µM	3.58 µM	1.64 µM	3.78 µM
COc1cc(/C=C/c2ccc(C)cc2)cc(OC)c1OC	–	19 µM	–	25.4 µM	–	–	–	13.5 µM	–	45.3 µM	–	4.9 µM	–	6.53 µM	–	7.07 µM	–	> 100 µM	–	9.16 µM
O=c1c2c([nH]c3nccn13)CCC2	–	> 10 µM	–	> 10 µM	–	–	–	> 10 µM	–	> 10 µM	–	> 10 µM	–	> 10 µM	–	> 10 µM	–	> 10 µM	–	> 10 µM
COc1c(C(C)=O)c(OCCCCOc2c(C(C)=O)c(OC)c3ccoc3c2OC)c(OC)c2occc12	1.61 µM	5.22 µM	–	–	> 100 µM	> 100 µM	4.81 µM	> 100 µM	3.11 µM	> 100 µM	1.61 µM	4.92 µM	1.35 µM	> 100 µM	> 100 µM	> 100 µM	2.48 µM	> 100 µM	4.64 µM	> 100 µM
CCCCNNC(=O)c1ccc(Br)cc1	17 µM	> 50 µM	2.46 µM	> 50 µM	4.35 µM	24 µM	3.29 µM	12.2 µM	2.06 µM	> 50 µM	1.03 µM	> 37.8 µM	2.54 µM	14.7 µM	1.76 µM	> 50 µM	–	–	6.77 µM	> 50 µM
